ChEMBL document CHEMBL5518188, “Discovery of 4-amino-1,6-dihydro-7H-pyrrolo[2,3-d]pyridazin-7-one derivatives as potential receptor-interacting serine/threonine-protein kinase 1 (RIPK1) inhibitors” (Eur J Med Chem, 2024)

Legend:
[1] = molecular target: T1, Receptor-interacting serine/threonine-protein kinase 1 (Homo sapiens, UniProt Q13546); assay: Inhibition of RIPK1 (unknown origin) in presence of ATP by kinaseProfiler assay
T1 sequence (Q13546 whole entry): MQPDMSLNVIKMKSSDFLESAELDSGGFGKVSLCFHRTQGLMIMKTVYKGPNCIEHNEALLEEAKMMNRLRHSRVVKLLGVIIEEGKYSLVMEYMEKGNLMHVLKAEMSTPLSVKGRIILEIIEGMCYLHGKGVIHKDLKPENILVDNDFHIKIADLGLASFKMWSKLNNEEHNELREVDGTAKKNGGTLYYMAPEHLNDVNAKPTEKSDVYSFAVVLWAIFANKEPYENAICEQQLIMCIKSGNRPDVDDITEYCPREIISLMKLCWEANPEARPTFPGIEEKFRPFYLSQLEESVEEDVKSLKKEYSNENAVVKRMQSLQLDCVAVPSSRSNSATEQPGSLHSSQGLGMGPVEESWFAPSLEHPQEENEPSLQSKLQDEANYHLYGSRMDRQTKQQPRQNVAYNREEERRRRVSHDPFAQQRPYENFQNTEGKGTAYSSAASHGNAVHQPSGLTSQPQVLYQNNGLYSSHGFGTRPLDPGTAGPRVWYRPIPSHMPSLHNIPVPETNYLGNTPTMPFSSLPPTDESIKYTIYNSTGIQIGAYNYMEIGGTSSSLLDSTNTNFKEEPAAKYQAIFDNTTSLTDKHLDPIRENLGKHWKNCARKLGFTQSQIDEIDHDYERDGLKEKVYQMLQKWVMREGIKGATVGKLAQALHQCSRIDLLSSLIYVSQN

U-937 = assay: Anti-necroptosis activity against TSZ-induced human U-937 cells; type: functional, cell-based
L929 = assay: Anti-necroptosis activity against TSZ-induced mouse L929 cells; type: functional, cell-based
[2] = Metabolic stability in cryopreserved human liver microsome assessed as half life; type: ADME; conditions: cryopreserved liver microsomes
HT-29 = assay: Anti-necroptosis activity against TSZ-induced human HT-29 cells; type: functional, cell-based

IC50 [1] | half-life [2] | SMILES | EC50 (U-937) | EC50 (L929) | EC50 (HT-29)
> 1000 nM | – | CCn1nc(-c2ccc3c(c2)CCN3C(=O)Cc2cccc(OC)c2)c2c(N)n[nH]c(=O)c21 | – | – | –
80.5 nM | 17.8 min | COCCn1nc(-c2ccc3c(c2)CCN3C(=O)Cc2cccc(OC(F)(F)F)c2)c2c(N)n[nH]c(=O)c21 | 8.29 nM | 1.08 nM | 4.45 nM
> 1000 nM | – | Nc1n[nH]c(=O)c2c1c(-c1ccc3c(c1)CCN3C(=O)Cc1cccc(OC(F)(F)F)c1)nn2CCC1CCCC1 | 60.1 nM | 7.61 nM | 134 nM
> 1000 nM | – | CCn1nc(-c2ccc3c(c2)CCN3C(=O)C2(c3ccccc3)CC2)c2c(N)n[nH]c(=O)c21 | > 1000 nM | > 1000 nM | > 1000 nM
> 1000 nM | – | CCn1nc(-c2ccc3c(c2)CCN3C(C)=O)c2c(N)n[nH]c(=O)c21 | – | – | –
105 nM | 18.3 min | CCCCn1nc(-c2ccc3c(c2)CCN3C(=O)Cc2cccc(OC(F)(F)F)c2)c2c(N)n[nH]c(=O)c21 | 15.5 nM | 1.2 nM | 8.23 nM
> 1000 nM | – | CCn1nc(-c2ccc3c(c2)CCN3C(=O)[C@H](C)c2ccccc2)c2c(N)n[nH]c(=O)c21 | > 1000 nM | > 1000 nM | > 1000 nM
> 1000 nM | – | CCn1cc(-c2ccc3c(c2)CCN3C(=O)Cc2cccc(OC(F)(F)F)c2)c2ncnc(N)c21 | – | – | –
> 1000 nM | – | CC(C)(C)c1ccc(Cn2nc(-c3ccc4c(c3)CCN4C(=O)Cc3cccc(OC(F)(F)F)c3)c3c(N)n[nH]c(=O)c32)cc1 | > 1000 nM | 659 nM | > 1000 nM
60.5 nM | 66.6 min | CCn1cc(-c2ccc3c(c2)CCN3C(=O)Cc2cccc(OC(F)(F)F)c2)c2c(N)n[nH]c(=O)c21 | 1.74 nM | 5.99 nM | 5.45 nM
64.3 nM | 26.6 min | CC(C)=CCn1nc(-c2ccc3c(c2)CCN3C(=O)Cc2cccc(OC(F)(F)F)c2)c2c(N)n[nH]c(=O)c21 | 22.7 nM | 1.38 nM | 11.3 nM
> 1000 nM | – | CCn1nc(-c2ccc3c(c2)CCN3C(=O)c2cccc(OC(F)(F)F)c2)c2c(N)n[nH]c(=O)c21 | > 1000 nM | > 1000 nM | > 1000 nM
109 nM | > 120 min | Nc1n[nH]c(=O)c2c1c(-c1ccc3c(c1)CCN3C(=O)Cc1cccc(OC(F)(F)F)c1)cn2CC1CC1 | 3.68 nM | 1.62 nM | 5.78 nM
> 1000 nM | – | Nc1n[nH]c(=O)c2c1c(-c1ccc3c(c1)CCN3C(=O)Cc1cccc(OC(F)(F)F)c1)nn2CCC1CCCCC1 | 103 nM | 16.2 nM | 246 nM
> 1000 nM | 100 min | Nc1n[nH]c(=O)c2c1c(-c1ccc3c(c1)CCN3C(=O)Cc1cccc(OC(F)(F)F)c1)nn2CCC1CNC1 | > 1000 nM | 366 nM | > 1000 nM
> 1000 nM | – | CCn1cc(-c2ccc3c(c2)CCN3C(=O)Cc2cccc(OC(F)(F)F)c2)c2c(=O)[nH]cnc21 | – | – | –
135 nM | – | CCn1nc(-c2ccc3c(c2)CCN3C(=O)Cc2cccc(C(F)(F)F)c2)c2c(N)n[nH]c(=O)c21 | 1.38 nM | 1.75 nM | 11.3 nM
512 nM | – | Nc1n[nH]c(=O)c2c1c(-c1ccc3c(c1)CCN3C(=O)Cc1cccc(OC(F)(F)F)c1)nn2CCN1CCCC1 | 173 nM | 54.4 nM | 63 nM
> 1000 nM | – | CCNc1ncnc(N)c1-c1ccc2c(c1)CCN2C(=O)Cc1cccc(OC(F)(F)F)c1 | – | – | –
191 nM | – | CCn1nc(-c2ccc3c(c2)CCN3C(=O)CCc2ccccc2)c2c(N)n[nH]c(=O)c21 | 232 nM | 42.1 nM | 149 nM
> 1000 nM | – | CCn1nc(-c2ccc3c(c2)CCN3Cc2cccc(OC(F)(F)F)c2)c2c(N)n[nH]c(=O)c21 | 990 nM | 451 nM | > 1000 nM
84.5 nM | 31.9 min | Nc1n[nH]c(=O)c2c1c(-c1ccc3c(c1)CCN3C(=O)Cc1cccc(OC(F)(F)F)c1)nn2CC(F)F | 14.6 nM | 9.84 nM | 16 nM
111 nM | – | CCn1nc(-c2ccc3c(c2)CCN3C(=O)CCc2cccc(C(F)(F)F)c2)c2c(N)n[nH]c(=O)c21 | 33 nM | 4.71 nM | 19.3 nM
177 nM | – | CCn1nc(-c2ccc3c(c2)CCN3C(=O)Cc2ccc(OC(F)(F)F)cc2)c2c(N)n[nH]c(=O)c21 | 638 nM | 726 nM | > 1000 nM

IC50 [1] | half-life [2] | SMILES | EC50 (U-937) | EC50 (L929) | EC50 (HT-29)
112 nM | – | CCc1nc(-c2ccc3c(c2)CCN3C(=O)Cc2cccc(OC(F)(F)F)c2)c2c(N)nccn12 | – | – | –
157 nM | – | NC(=O)c1cncc(-c2ccc3c(c2)CCN3C(=O)Cc2cccc(OC(F)(F)F)c2)c1 | – | – | –
97.6 nM | – | CCn1nc(-c2ccc3c(c2)CCN3C(=O)CCc2cccc(OC(F)(F)F)c2)c2c(N)n[nH]c(=O)c21 | 4.82 nM | 20.3 nM | 4.62 nM
> 1000 nM | – | CCn1nc(-c2ccc3c(c2)CCN3C(=O)Cc2cccc(F)c2)c2c(N)n[nH]c(=O)c21 | 722 nM | 45.6 nM | 597 nM
> 1000 nM | – | NC(=O)c1cc(-c2ccc3c(c2)CCN3C(=O)Cc2cccc(OC(F)(F)F)c2)ccc1N | – | – | –
95.9 nM | 49.9 min | Nc1n[nH]c(=O)c2c1c(-c1ccc3c(c1)CCN3C(=O)Cc1cccc(OC(F)(F)F)c1)nn2CC1CCCC1 | 12.7 nM | 3.95 nM | 15.7 nM
98.7 nM | 26.4 min | CC1(Cn2nc(-c3ccc4c(c3)CCN4C(=O)Cc3cccc(OC(F)(F)F)c3)c3c(N)n[nH]c(=O)c32)CC1 | 10.2 nM | 13.2 nM | 37.5 nM
475 nM | – | CCn1nc(-c2ccc3c(c2)CCN3C(=O)Cc2cc(F)cc(C(F)(F)F)c2)c2c(N)n[nH]c(=O)c21 | 283 nM | 12.8 nM | 331 nM
81.6 nM | 16.5 min | CCC1(Cn2nc(-c3ccc4c(c3)CCN4C(=O)Cc3cccc(OC(F)(F)F)c3)c3c(N)n[nH]c(=O)c32)COC1 | 4.64 nM | 6.67 nM | 18.4 nM
290 nM | – | Nc1n[nH]c(=O)c2c1c(-c1ccc3c(c1)CCN3C(=O)Cc1cccc(OC(F)(F)F)c1)nn2Cc1ccc(F)cc1 | 112 nM | 30.2 nM | 257 nM
44.7 nM | 19.6 min | CC(C)Cn1cc(-c2ccc3c(c2)CCN3C(=O)Cc2cccc(OC(F)(F)F)c2)c2c(N)n[nH]c(=O)c21 | 1.84 nM | 8.8 nM | 1.61 nM
102 nM | – | NC(=O)c1cccc(-c2ccc3c(c2)CCN3C(=O)Cc2cccc(OC(F)(F)F)c2)c1 | – | – | –
73.7 nM | 19.9 min | Nc1n[nH]c(=O)c2c1c(-c1ccc3c(c1)CCN3C(=O)Cc1cccc(OC(F)(F)F)c1)nn2CC1COC1 | 5.09 nM | 5.89 nM | 15.1 nM
941 nM | – | CCn1nc(-c2ccc3c(c2)CCN3C(=O)Cc2ccc(Oc3ccccc3)cc2)c2c(N)n[nH]c(=O)c21 | 812 nM | 311 nM | 905 nM
140 nM | – | Cn1nc(-c2ccc3c(c2)CCN3C(=O)Cc2cccc(OC(F)(F)F)c2)c2c(N)n[nH]c(=O)c21 | 37.1 nM | 3.4 nM | 21.4 nM
70.3 nM | – | Nc1n[nH]c(=O)c2c1c(-c1ccc3c(c1)CCN3C(=O)Cc1cccc(OC(F)(F)F)c1)nn2CCC1CC1 | 4.04 nM | 3.67 nM | 18.2 nM
> 1000 nM | – | Nc1nc2cccc(-c3ccc4c(c3)CCN4C(=O)Cc3cccc(OC(F)(F)F)c3)n2n1 | – | – | –
> 1000 nM | – | CCn1nc(-c2ccc3c(c2)CCN3C(=O)Cc2cccc(F)c2F)c2c(N)n[nH]c(=O)c21 | 946 nM | 123 nM | 579 nM
915 nM | – | CCn1nc(-c2ccc3c(c2)CCN3C(=O)Cc2ccc3c(c2)OCO3)c2c(N)n[nH]c(=O)c21 | 703 nM | 114 nM | 562 nM
> 1000 nM | – | CCn1nc(-c2ccc3c(c2)CCN3C(=O)Cc2ccccc2)c2c(N)n[nH]c(=O)c21 | 1020 nM | 142 nM | 546 nM
> 1000 nM | – | CCn1nc(-c2ccc3c(c2)CCN3C(=O)CC2CCCCC2)c2c(N)n[nH]c(=O)c21 | 879 nM | 64.5 nM | 891 nM
68.4 nM | – | Nc1n[nH]c(=O)c2c1c(-c1ccc3c(c1)CCN3C(=O)Cc1cccc(OC(F)(F)F)c1)nn2CC1CCC1 | 1.87 nM | 1.35 nM | 34 nM
114 nM | – | CC(C)CCn1nc(-c2ccc3c(c2)CCN3C(=O)Cc2cccc(OC(F)(F)F)c2)c2c(N)n[nH]c(=O)c21 | 18.5 nM | 6.36 nM | 8.24 nM
